We go through eleven molecules from ChEMBL document CHEMBL1201862, “PubChem BioAssay data set” (2004).

Among the test systems are BT-549; CCRF-CEM; COLO 205; EKVX; HCT-116; Hs-578T; M14; MDA-N; PC-3; RXF 393; SF-295; SK-MEL-28; SK-MEL-2; SK-MEL-5; SNB-19; T47D; TK-10; UACC-257; MCF7.
Assay in all cases: NCI tumour cell line growth inhibition, 48 h

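Interpolation was linear, between the two tested concentrations surrounding the appropriate level; five concentrations were tested over 48 hours in 96-well plates. GI50: concentration for 50% inhibition of growth.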 The source made the active and inactive calls. Rule as the data show it: active = GI50 up to about 1.1 µM and inactive = higher.

On to `COc1cc(C2=C(C)[C@@H]3CN(CC=C3c3ccc(Cl)cc3)C2)c(S(=O)(=O)O)cc1OC`, for which the GI50 in the assay with BT-549, with CCRF-CEM, in the assay with COLO 205, in the assay on EKVX, with HCT-116 and with Hs-578T was > 100 µM (inactive) in each case. Besides, the GI50 in the assay on M14, in the assay with MDA-N, with PC-3, in the assay with RXF 393, with SF-295 and in the assay on SK-MEL-28 was > 100 µM (inactive) each time. Moreover, the GI50 in the assay with SK-MEL-2, in the assay with SK-MEL-5, in the assay on SNB-19, in the assay on T47D, with TK-10 and in the assay with UACC-257 was > 100 µM (inactive) each time.

As for `N#CC(=S)Nc1cccc(Cl)c1`, the GI50 was 35.5 µM (inactive) with BT-549; 30 µM (inactive) in the assay with CCRF-CEM; 36.1 µM (inactive) in the assay with COLO 205; 41.1 µM (inactive) in the assay with EKVX; 55.3 µM (inactive) in the assay with HCT-116; 27.5 µM (inactive) in the assay on M14. Moreover, the GI50 with MCF7 is 46.8 µM (inactive); in the assay on MDA-N it was 44.3 µM (inactive); with PC-3 it was 32.7 µM (inactive); with RXF 393 it was 26 µM (inactive); in the assay on SF-295, 23.8 µM (inactive); with SK-MEL-28, 44.7 µM (inactive). The GI50 with SK-MEL-2 is 26.5 µM (inactive); in the assay on SK-MEL-5, 4.11 µM (inactive); with SNB-19 it was 54.5 µM (inactive); in the assay with T47D, 27.2 µM (inactive); in the assay on TK-10, 35.4 µM (inactive); in the assay on UACC-257, 37.2 µM (inactive).

Turning to `O=C(c1ccccc1)c1ccc(N2C(=O)/C(=C/c3cccc([N+](=O)[O-])c3)N=C2c2ccccc2)c(N2C(=O)/C(=C/c3cccc([N+](=O)[O-])c3)N=C2c2ccccc2)c1`, the GI50 in the assay with BT-549 was 35.5 µM (inactive); with COLO 205, 2.77 µM (inactive); in the assay on EKVX it was > 100 µM (inactive); in the assay with HCT-116 it was 39.4 µM (inactive); in the assay with Hs-578T, 30.7 µM (inactive); with M14, 14.4 µM (inactive). Also, the GI50 with MCF7 was 26.7 µM (inactive); in the assay with MDA-N it was 21.7 µM (inactive); with PC-3 it was 27.3 µM (inactive); in the assay with SF-295, 16.2 µM (inactive); in the assay on SK-MEL-28, 78.3 µM (inactive); with SK-MEL-2 it was 26.4 µM (inactive). In addition, the GI50 in the assay on SK-MEL-5 is 2.34 µM (inactive); with SNB-19, 54.8 µM (inactive); in the assay on T47D, 24 µM (inactive); in the assay on TK-10, 42.5 µM (inactive); with UACC-257, 36.2 µM (inactive).

For `CCOP(=O)(/C=C/n1cc(C)c(=O)[nH]c1=O)OCC`, the GI50 in the assay on BT-549, in the assay with CCRF-CEM, in the assay with COLO 205, with EKVX, in the assay with HCT-116 and in the assay with M14 was > 100 µM (inactive) throughout. The GI50 with MCF7, in the assay with MDA-N, in the assay with PC-3, in the assay with RXF 393, with SF-295 and in the assay on SK-MEL-28 was > 100 µM (inactive) in each case. Further, the GI50 in the assay on SK-MEL-2, in the assay on SK-MEL-5, with SNB-19, in the assay with T47D, with TK-10 and in the assay with UACC-257 was > 100 µM (inactive) in each case.

Turning to `COc1ccc(C2CC(c3ccc(NS(=O)(=O)c4cc([N+](=O)[O-])ccc4C)cc3)=NN2S(=O)(=O)c2cc([N+](=O)[O-])ccc2C)cc1` (centres undefined), the GI50 in the assay on BT-549 is 36 µM (inactive); in the assay on CCRF-CEM, 65.2 µM (inactive); with COLO 205, 51.4 µM (inactive); in the assay on EKVX it was 39.7 µM (inactive); with HCT-116, 32.7 µM (inactive); with M14, 41.1 µM (inactive). Further, the GI50 in the assay with MCF7 was 39 µM (inactive); in the assay on MDA-N it was 35.8 µM (inactive); in the assay on PC-3, 33.8 µM (inactive); in the assay on RXF 393, > 100 µM (inactive); in the assay with SF-295 it was 33 µM (inactive); with SK-MEL-28, > 100 µM (inactive). Moreover, the GI50 in the assay with SK-MEL-2 was 35.6 µM (inactive); in the assay on SK-MEL-5, 42.2 µM (inactive); in the assay with SNB-19, 61.2 µM (inactive); with T47D, 71.4 µM (inactive); with TK-10, 52.6 µM (inactive); with UACC-257, 30.6 µM (inactive).

`O=C(Nc1ccccc1)N1CCNC1=S`: the GI50 is 65.5 µM (inactive) in the assay on BT-549; > 100 µM (inactive) in the assay with CCRF-CEM; > 100 µM (inactive) in the assay with COLO 205; 53 µM (inactive) in the assay on EKVX; > 100 µM (inactive) in the assay on HCT-116; 48 µM (inactive) with Hs-578T. The GI50 with M14 is > 100 µM (inactive); in the assay on MCF7, > 100 µM (inactive); in the assay with MDA-N it was > 100 µM (inactive); with RXF 393, 26.5 µM (inactive); in the assay on SF-295, > 100 µM (inactive); in the assay on SK-MEL-28, > 100 µM (inactive). For the same molecule, the GI50 is > 100 µM (inactive) in the assay with SK-MEL-2, > 100 µM (inactive) in the assay on SK-MEL-5 and 60.1 µM (inactive) in the assay on T47D.

Take `O=[N+]([O-])c1cc2ccc1OCc1cccc(n1)COc1ccc(cc1[N+](=O)[O-])/C=N\CCCCCCCC/N=C\2`: the GI50 in the assay on BT-549, with CCRF-CEM, in the assay on COLO 205, in the assay on EKVX, in the assay on HCT-116 and in the assay with Hs-578T was > 100 µM (inactive) throughout. The GI50 with M14, with MCF7, in the assay with MDA-N, with PC-3, in the assay with SF-295 and with SK-MEL-28 was > 100 µM (inactive) in each case. The GI50 in the assay with SK-MEL-2, in the assay on SK-MEL-5, in the assay with SNB-19, in the assay with TK-10 and in the assay with UACC-257 was > 100 µM (inactive) in each case.

`COc1cc(/C=C2/SC(c3ccccc3)N(c3cccc(NC(C)=O)c3)C2=O)cc(OC)c1OC` (centres undefined): the GI50 was 44.7 µM (inactive) with BT-549; 41.9 µM (inactive) with COLO 205; 50.7 µM (inactive) in the assay with EKVX; 30.2 µM (inactive) in the assay on HCT-116; 23.9 µM (inactive) in the assay on Hs-578T; 27.7 µM (inactive) in the assay with M14. The GI50 in the assay on MCF7 was 39.2 µM (inactive); in the assay on MDA-N it was 25.5 µM (inactive); in the assay on RXF 393, 24.8 µM (inactive); in the assay on SF-295 it was 58.5 µM (inactive); in the assay with SK-MEL-28 it was 34 µM (inactive); with SK-MEL-5 it was 24.8 µM (inactive). Besides, the GI50 in the assay on SNB-19 was 31 µM (inactive); in the assay with T47D it was 45.7 µM (inactive); with TK-10 it was > 100 µM (inactive); in the assay on UACC-257, 67.8 µM (inactive).

`CCCCCCCCCCCCCC[C@@H](O)[C@H]1CC[C@H]([C@H]2CC[C@H]([C@H](O)CCCCCC[C@@H](O)CC3=C[C@H](C)OC3=O)O2)O1`: the GI50 with BT-549 was > 25 µM (inactive); in the assay on CCRF-CEM, > 25 µM (inactive); with COLO 205 it was > 25 µM (inactive); in the assay with EKVX, > 7.52 µM (inactive); in the assay with HCT-116, 0.203 µM (active); with Hs-578T, 1.63 µM (inactive). In addition, the GI50 in the assay on M14 is > 25 µM (inactive); in the assay on MCF7, > 15.3 µM (inactive); in the assay with MDA-N it was 2.03 µM (inactive); in the assay on PC-3, > 25 µM (inactive); in the assay on RXF 393, > 25 µM (inactive); with SF-295 it was > 25 µM (inactive). Besides, the GI50 with SK-MEL-28 was > 25 µM (inactive); in the assay with SK-MEL-2 it was > 25 µM (inactive); in the assay with SK-MEL-5, 0.117 µM (active); in the assay with SNB-19 it was > 25 µM (inactive); in the assay with TK-10, > 25 µM (inactive); in the assay with UACC-257 it was 3.65 µM (inactive).

With `CC[C@H]1C=CCC[C@@]2(C[C@@H]3CC[C@H]4[C@@H](C(=O)OCCCCCCCCCCCCCCCC(=O)N(CCCNC(C)=O)C[C@H](CCNC(C)=O)OC(C)=O)[C@@]5(CCC[C@@H](C)O5)NC(=[N+]34)N2)O1`, the GI50 in the assay with BT-549 is 1.82 µM (inactive); in the assay on COLO 205, 1.28 µM (inactive); in the assay on EKVX, 0.861 µM (active); in the assay on HCT-116, 1.58 µM (inactive); with Hs-578T it was 1.93 µM (inactive); in the assay with M14, 1.73 µM (inactive). Further, the GI50 in the assay with MCF7 is 1.46 µM (inactive); with MDA-N, 1.69 µM (inactive); with PC-3, 1.07 µM (active); with RXF 393 it was 1.79 µM (inactive); in the assay with SF-295, 1.86 µM (inactive); in the assay with SK-MEL-28, 1.28 µM (inactive). Moreover, the GI50 is 1.72 µM (inactive) with SK-MEL-2; 1.3 µM (inactive) with SK-MEL-5; 1.62 µM (inactive) with SNB-19; 1.56 µM (inactive) in the assay on TK-10; 1.24 µM (inactive) with UACC-257.

Take `Cc1ccc(C(=O)N/N=C(\N=N\c2ccccc2[N+](=O)[O-])c2ccc(N(C)C)cc2)cc1`: the GI50 in the assay on BT-549, with CCRF-CEM, in the assay on COLO 205, in the assay on EKVX, in the assay on HCT-116 and with Hs-578T was > 100 µM (inactive) in each case. Besides, the GI50 in the assay on M14, in the assay with MCF7, with MDA-N, with PC-3, in the assay on SF-295 and with SK-MEL-28 was > 100 µM (inactive) each time. Also, the GI50 in the assay on SK-MEL-2, with SK-MEL-5, in the assay with SNB-19, in the assay with TK-10 and in the assay with UACC-257 was > 100 µM (inactive) in each case.
